Patent US20120100568A1, “SERUM-FREE MEDIUM FOR INDUCING PLURIPOTENT STEM CELLS QUICKLY WITH HIGH EFFICIENCY AND METHOD USING THEREOF” (GUANGZHOU INSTITUTES OF BIOMEDICINE AND HEALTH, CHINESE …, priority 2009, published 2012)

Columns and labels:
MEF cells [1] = test: Screening compounds in the iPS process in iPS-SF1 medium (relative GFP efficiency by FACS); type: cell-based, mouse; details: iPS-SF1, four factors, day 7; for effect on the efficiency of iPS reprogramming (relative GFP efficiency): PD0325901 1 μM, CHIR99021 3 μM, SU5402 2 μM; for enhancement of the efficiency of iPS reprogramming (relative GFP efficiency): TSA 20 nM, VPA 1 mM
Experimental: The main method for quantifying reprogramming efficiency is FACS analysis for Oct4-GFP positive cells. Based on the results of the timing process, the infected MEF cells were digested with trypsin at days 7 and 9 after infection and then analyzed through FACSCalibur. GFP positive cells received the gates of control signals from PE pathway, and 15,000 events were recorded as a minimum. Cells infected with pMXs-FLAG were used as negative control. In order to verify the efficiency as analyzed by FACS, GFP positive colonies were counted directly under a fluorescence microscope at day 14 after infection.
20,000 MEF cells were plated in each well of a twelve-well plate. The medium was iPS-SF1. Then, the cells were infected with viruses as described above in order to be transfected with the four factors. The compounds as shown in FIG. 6 were added into the medium at the following concentrations respectively: PD0325901 (1 μM), CHIR99021 (3 μM), SU5402 (2 μM, EMDbiosciences), Y-27632 (10 μM), vitamin E (25 μM, Sigma), vitamin A (1 μM, Sigma), A83-01 (0.5 μM, EMD), SB203580 (2 μM), Dorspmorphin (3 μM, Sigma), PFF-α (10 μM), TSA (20 nM, Sigma), VPA (1 mM, EMD), JAK inhibitor (0.3 μM, EMD), 5aza-DC (1 μM, Sigma), BIX01294 (1 μM), Bayk8644 (2 μM, EMD).
At day 7 after infection, cells were collected for FACS analysis as described above, and the relative GFP efficiency was measured. […] However, under conditions using the medium of the present invention, the compounds that had been previously reported as favorable to self-renewal of mouse embryonic stem cells, such as PD0325901, CHIR99021, and SU5402 reduced the efficiency of iPS reprogramming.

MEF cells [2] = test: Effects of medium components, growth factors and serum on iPS reprogramming efficiency (Oct4-GFP FACS); type: cell-based, mouse; details: for effect on the induction of the iPS reprogramming process: added to iPS-SF1 without bFGF, four factors, Oct4-GFP at day 7
Experimental: The main method for quantifying reprogramming efficiency is FACS analysis for Oct4-GFP positive cells. Based on the results of the timing process, the infected MEF cells were digested with trypsin at days 7 and 9 after infection and then analyzed through FACSCalibur. GFP positive cells received the gates of control signals from PE pathway, and 15,000 events were recorded as a minimum. Cells infected with pMXs-FLAG were used as negative control. In order to verify the efficiency as analyzed by FACS, GFP positive colonies were counted directly under a fluorescence microscope at day 14 after infection. LIF, N2, and bFGF in iPS-SF1 medium as listed in Table 1 were deleted respectively, or N2 and bFGF were added into DMEM+10% KOSR (i.e., containing no growth factor but containing NEAA, L-Glutamine or other ingredients at the same time, called as bKSR hereinafter) medium at concentrations equivalent to that of iPS-SF1 respectively, in order to detect the effects of LIF, N2, bFGF on the iPS reprogramming efficiency of MEF cells transfected with the four factors. […] In order to verify whether other tyrosine kinases and estrogens can play a role in inducing reprogramming of iPS cells in the medium of the present invention, after MEF cells were infected with the four-factor viruses, the following media were used instead, wherein the blank control was iPS-SF1 without bFGF, the experimental group was the blank medium (i.e., iPS-SF1 without bFGF) supplemented with various receptor tyrosine kinases (including basic fibroblast growth factor bFGF, epidermal growth factor EGF, vascular endothelial growth factor VEGF, insulin-like growth factor 2 IGF2, and estradiol), and a serum medium (FBS) was used as the negative control of this experiment.

## Cc1c[nH]c(-c2cnc(NCCNc3ccc(C#N)cn3)nc2-c2ccc(Cl)cc2Cl)n1 [CHIR99021]
MEF cells [1]
  effect on the efficiency of iPS reprogramming (relative GFP efficiency): reduced

## O=C(NOC[C@H](O)CO)c1ccc(F)c(F)c1Nc1ccc(I)cc1F [PD0325901]
MEF cells [1]
  effect on the efficiency of iPS reprogramming (relative GFP efficiency): reduced

## Cc1c[nH]c(/C=C2\C(=O)Nc3ccccc32)c1CCC(=O)O [SU5402]
MEF cells [1]
  effect on the efficiency of iPS reprogramming (relative GFP efficiency): reduced

## CC(/C=C/C(=O)NO)=C\[C@@H](C)C(=O)c1ccc(N(C)C)cc1 [TSA]
MEF cells [1]
  enhancement of the efficiency of iPS reprogramming (relative GFP efficiency): 100%

## CCCC(CCC)C(=O)O [VPA]
MEF cells [1]
  enhancement of the efficiency of iPS reprogramming (relative GFP efficiency): 100%

## C[C@]12CC[C@@H]3c4ccc(O)cc4CC[C@H]3[C@@H]1CC[C@@H]2O [estrogen, estradiol]
MEF cells [2]
  effect on the induction of the iPS reprogramming process: comparable effects

## basic fibroblast growth factor [bFGF]
MEF cells [2]; component added to bKSR or deleted from iPS-SF1, four factors, day 7
  effects on iPS reprogramming efficiency: even higher than those of LIF

## epidermal growth factor (NSDSECPLSHDGYCLHDGVCMYIEALDKYACNCVVGYIGERCQYRDLKWWELR; Epidermal growth factor; UniProt P01133 971-1023, looked up) [EGF]
MEF cells [2]
  effect on the induction of the iPS reprogramming process: comparable effects

## insulin-like growth factor 2 [IGF2]
MEF cells [2]
  effect on the induction of the iPS reprogramming process: comparable effects

## vascular endothelial growth factor [VEGF]
MEF cells [2]
  effect on the induction of the iPS reprogramming process: comparable effects
